These results are taken from US20220119355A1, “SATURATED-RING-FUSED DIHYDROPYRIMIDINONE OR DIHYDROTRIAZINONE COMPOUNDS AND PHARMACEUTICAL USE THEREOF” (Japan Tobacco Inc., priority 2018, published 2022).

One experiment concerns the target T1, mouse RORγ (Mus musculus, UniProt P51450).
T1 construct: from Ile251 to Lys516 for mouse RORγ; expressed in transfected cells; host or cells: CHO cells (transient co-transfection with pG5-Luc)
T1 sequence (P51450 251-516): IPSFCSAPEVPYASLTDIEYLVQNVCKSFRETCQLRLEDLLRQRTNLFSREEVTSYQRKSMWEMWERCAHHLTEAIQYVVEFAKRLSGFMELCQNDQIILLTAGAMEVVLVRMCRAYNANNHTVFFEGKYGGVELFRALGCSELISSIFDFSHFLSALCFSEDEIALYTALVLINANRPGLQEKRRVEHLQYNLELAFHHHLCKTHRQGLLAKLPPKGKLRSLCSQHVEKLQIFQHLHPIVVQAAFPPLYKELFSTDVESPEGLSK
Kind of experiment: In-vitro reporter gene assay for inhibitory activity against RORγ transcription, Test Method A (GAL4-mRORγ LBD / pG5-Luc in CHO cells). It is filed as cell-based. As to conditions: luciferase reporter, 2 days. The procedure:
(§1) In-Vitro Assay for Inhibitory Activity Against RORγ Transcription
(§2) Inhibitory activity against RORγ transcription was assessed for test compounds by either of the following Test Method A or B of reporter gene assay.
(§3) cDNAs encoding human and mouse RORγ ligand binding domains (LBD) were obtained based on the sequences of human RORγ (Genbank registered number NM_005060.3) and mouse RORγ (Genbank registered number NM_011281.2) (LBD sequences: from Ser253 to Lys518 for human RORγ; from Ile251 to Lys516 for mouse RORγ).
(§4) LBD cDNAs of human and mouse RORγ were inserted into pFA-CMV vector (Stratagene), which expresses GAL4-DNA binding domain fusion protein. The resulting plasmids are hereinafter referred to as GAL4-hRORγ plasmid and GAL4-mRORγ plasmid, respectively.
(§5) GAL4-hRORγ plasmid or GAL4-mRORγ plasmid was transiently co-transfected into Chinese hamster ovary cells (CHO cells) with pG5-Luc (Promega), reporter plasmid expressing firefly luciferase in a GAL4-dependent manner.
(§6) TransIT (Registered trademark) CHO Transfection Kit (Mirus) was used to co-transfect CHO cells with the plasmids. One day prior to the assay, CHO cells were suspended in HAM F-12 Nutrient medium containing 10% (v/v) fetal bovine serum and seeded at 6×10^6 cells per 175 cm^2 cell culture flask each. 54 μL of TransIT (Registered trademark) CHO reagent was added into a 15 mL tube containing 1.16 mL of HAM F-12 Nutrient medium without fetal bovine serum, and then mixed and incubated at room temperature for 10 minutes. 36 μL of a plasmid solution containing 400 ng of GAL4-hRORγ plasmid, 9000 ng of pG5-Luc plasmid, and 8600 ng of pcDNA3 plasmid were added into the tube and mixed gently. In the case of mouse assay, a plasmid solution containing 250 ng of GAL4-mRORγ plasmid, 9000 ng of pG5-Luc plasmid, and 8750 ng of pcDNA3 plasmid was added, instead. The mixture was incubated at room temperature for 10 minutes. 9 μL each of CHO Mojo Reagent were then added into each tube and mixed gently. The mixture was incubated at room temperature for 10 minutes. The resulting transfection reagent was applied to the cell culture. After incubation at 37° C., 5% CO2 for 4 hours, the plasmid-transfected CHO cells were harvested by trypsin treatment. The collected cells were resuspended in culture medium and plated into a 384-well-white plate at 8,000 cells/50 μL/well. The plate was let stand at room temperature for 1 hour and then further incubated at 37° C., 5% CO2 for 3 hours. A test compound was dissolved in DMSO to obtain a concentration of 10 mM. Each solution was serially diluted with DMSO and further diluted with culture medium just before use. The test compound solutions were added. to the cells in the plate at 8 different concentrations. The final concentration of DMSO was 0.2% (v/v). After the addition of test compound, the cells were incubated at […], 5% CO2 for 2 days.
(§7) RORγ transcriptional activity was detected as the intracellular luciferase activity using SteadyLite HTS Reporter Gene Assay System (Perkin Elmer). SteadyLite Reagent was diluted five-fold with Extension buffer (10 mM Tricine, 0.2% (w/v) bovine serum albumin, 0.02% (v/v) Tween-20) to obtain a luciferase substrate solution. After the measurement of the cell viability with Resazurin, the medium was removed in the plate and the luciferase substrate solution was added thereto. After the incubation at room temperature for 10 minutes, luminescence of each well was measured with a microplate reader. The luciferase activity derived from the luminescence count in a vehicle-control well treated with 0.2% DMSO alone was defined as 100%, and the luciferase activity after treatment with the test compound was calculated as a percentage, %-of-control, based on the value of the vehicle-control. An EC50 value of the test compound was calculated by curve fitting with GraphPad Prism. The luminescence counts at the concentration of test compound where cytotoxicity was observed were excluded from data analysis. […]
(Reporter assays use an easily measured gene product as a stand-in for the process of interest.)

The next experiment addresses T2, human RORγ (Homo sapiens, UniProt P51449).
T2 construct: from Ser253 to Lys518 for human RORγ; expressed in transfected cells; host or cells: CHO cells (transient co-transfection with pG5-Luc)
T2 sequence (P51449 253-518): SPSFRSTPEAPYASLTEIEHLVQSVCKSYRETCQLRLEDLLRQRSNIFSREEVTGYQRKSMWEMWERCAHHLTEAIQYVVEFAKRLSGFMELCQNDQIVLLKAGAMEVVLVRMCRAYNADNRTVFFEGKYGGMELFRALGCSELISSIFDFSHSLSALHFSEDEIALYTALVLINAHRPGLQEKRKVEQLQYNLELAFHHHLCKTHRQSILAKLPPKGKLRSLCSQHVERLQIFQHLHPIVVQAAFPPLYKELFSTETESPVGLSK
Put plainly: In-vitro reporter gene assay for inhibitory activity against RORγ transcription, Test Method A (GAL4-hRORγ LBD / pG5-Luc in CHO cells). It is filed as cell-based. The following applies: luciferase reporter, 2 days. How it is done: as §1, §2, §3, §4, §5, §6, §7

Consider `CC(C)(C)COc1ccc(C23CCCC2=NNC(=O)N3)cc1Cl` (racemic) [Example 1, 4a-[3-Chloro-4-(2,2-dimethyl-propoxy)phenyl]-2,4,4a,5,6,7-hexahydro-cyclopenta[1,2,4]triazin-3-one], for which the EC50 on mouse RORγ came to 0.536 µM; on human RORγ, 1.69 µM.

Take `CC(C)(C)CCc1ccc(C23CCC(C)(C)C2=CN(CCCC(=O)O)C(=O)N3)cc1` (racemic) [Example 2]: the EC50 is 0.022 µM on mouse RORγ and 0.03 µM on human RORγ.

In the case of `CCOC(=O)CCN1C=C2CN(C(=O)OC(C)(C)C)CC2(c2ccc(CCC(C)(C)C)c(Cl)c2)NC1=O` (racemic) [Example 13], the EC50 at mouse RORγ was 5.37 µM; at human RORγ, 5.7 µM.

For the compound `CC(=O)N1CC2=CN(CCC(=O)O)C(=O)NC2(c2ccc(CCC(C)(C)C)c(Cl)c2)C1` (racemic) [Example 14], the EC50 came out at 3.8 µM on mouse RORγ and 2.88 µM on human RORγ.

`CC(C)(C)CCc1ccc(C23CCCC2=CNC(=O)N3)cc1Cl` (racemic) [Example 23]: the EC50 worked out at 0.106 µM at mouse RORγ and 0.224 µM at human RORγ.

For the compound `CC(C)(C)CCc1ccc(C23CCCC2=CN(CCC(=O)O)C(=O)N3)cc1Cl` (racemic) [Example 24], the EC50 on mouse RORγ amounted to 0.126 µM; at human RORγ, 0.332 µM.

With `CC(=O)NCC1CCC2(c3ccc(CCC(C)(C)C)c(Cl)c3)NC(=O)N(CCC(=O)O)C=C12` (racemic) [Example 30], the EC50 at mouse RORγ and at human RORγ was over 20 µM each time.

Take `CC(C)(C)CCc1ccc(C23CCC(CC#N)C2=CN(CCC(=O)O)C(=O)N3)cc1Cl` (racemic) [Example 31]: the EC50 on mouse RORγ and on human RORγ was 0.048 µM throughout.

As to `CC(C)(C)COc1ccc(C23CCCCC2=NNC(=O)N3)cc1Cl` (racemic) [Example 36], the EC50 on mouse RORγ worked out at 0.071 µM; on human RORγ, 0.435 µM.

For the compound `CC(C)(C)CCc1ccc(C23CCCCC2=CN(CCC(=O)O)C(=O)N3)cc1Cl` (racemic) [Example 39], the figures for the EC50 at mouse RORγ and at human RORγ were 0.021 µM and 0.032 µM, respectively.

Regarding `CC1=C2CCCCC2(c2ccc(CCC(C)(C)C)c(Cl)c2)NC(=O)N1CCC(=O)O` (racemic) [Example 42], the EC50 is 0.139 µM at mouse RORγ and 0.29 µM at human RORγ.

Regarding `CC(C)(C)CCc1ccc(C23CCCC(CCOCc4ccccc4)C2=CN(CCC(=O)O)C(=O)N3)cc1Cl` (racemic) [Example 43], the values for the EC50 on mouse RORγ and on human RORγ were 0.159 µM and 0.043 µM, respectively.

For `CC(C)(C)CCc1ccc(C23CCCC(CCO)C2=CN(CCC(=O)O)C(=O)N3)cc1Cl` (racemic) [Example 44], the EC50 at mouse RORγ was found to be 0.482 µM; on human RORγ, 1.27 µM.

Consider `CCOC(=O)CCN1C=C2C(CC(=O)O)CCCC2(c2ccc(CCC(C)(C)C)c(Cl)c2)NC1=O` (racemic) [Example 45], for which the EC50 at mouse RORγ was 0.84 µM; at human RORγ it was 1.63 µM.

On to `COCCC1CCCC2(c3ccc(CCC(C)(C)C)c(Cl)c3)NC(=O)N(CCC(=O)O)C=C12` (racemic) [Example 46], for which the values for the EC50 at mouse RORγ and on human RORγ were 0.211 µM and 0.302 µM, respectively.

As for `CCOC(=O)CCN1C=C2C(CN)CCCC2(c2ccc(CCC(C)(C)C)c(Cl)c2)NC1=O` (racemic) [Example 47], the EC50 at mouse RORγ was 8.83 µM; on human RORγ, over 8 µM.

For the compound `CC(C)(C)CCc1ccc(C23CCCC(CCOS(C)(=O)=O)C2=CN(CCC(=O)O)C(=O)N3)cc1Cl` (racemic) [Example 48], the EC50 at mouse RORγ came to 1.87 µM; on human RORγ, 1.99 µM.

Turning to `CCOC(=O)CCN1C=C2C(CCNC)CCCC2(c2ccc(CCC(C)(C)C)c(Cl)c2)NC1=O` (racemic) [Example 49], the EC50 at mouse RORγ and on human RORγ was over 3.2 µM throughout.

Regarding `CCOC(=O)CCN1C=C2C(CCN(C)C)CCCC2(c2ccc(CCC(C)(C)C)c(Cl)c2)NC1=O` (racemic) [Example 50], the EC50 at mouse RORγ is 7.48 µM; at human RORγ, over 8 µM.

For the compound `CC(C)(C)CCc1ccc(C23CCCC(CC(N)=O)C2=CN(CCC(=O)O)C(=O)N3)cc1Cl` (racemic) [Example 51], the values for the EC50 on mouse RORγ and on human RORγ were 1.8 µM and 4.97 µM, respectively.

Consider `CC(C)(C)CCc1ccc(C23CCCC(CC#N)C2=CN(CCC(=O)O)C(=O)N3)cc1Cl` (racemic) [Example 52], for which the results for the EC50 at mouse RORγ and on human RORγ were 0.029 µM and 0.018 µM, respectively.

As for `CC(C)(C)CCc1ccc(C23CCCC(CO)C2=CN(CCC(=O)O)C(=O)N3)cc1Cl` (racemic) [Example 55], the EC50 was found to be 0.058 µM at mouse RORγ and 0.093 µM at human RORγ.

For `COCC1CCCC2(c3ccc(CCC(C)(C)C)c(Cl)c3)NC(=O)N(CCC(=O)O)C=C12` (racemic) [Example 56], the EC50 at mouse RORγ is 0.029 µM; at human RORγ it was 0.02 µM.

Turning to `CC1CCCC2(c3ccc(CCC(C)(C)C)c(Cl)c3)NC(=O)N(CCC(=O)O)C=C12` (racemic) [Example 57], the values for the EC50 at mouse RORγ and on human RORγ were 0.021 µM and 0.034 µM, respectively.

For the compound `CC(C)(C)CCc1ccc(C23COCCC2=CN(CCC(=O)O)C(=O)N3)cc1Cl` (racemic) [Example 58], the EC50 at mouse RORγ is 0.02 µM; at human RORγ, 0.033 µM.

Regarding `CC(C)CCOc1ccc(C23CCCCC2=CN(CCC(=O)O)C(=O)N3)cc1Cl` (racemic) [Example 59], the EC50 was 0.149 µM at mouse RORγ and 0.279 µM on human RORγ.

As for `CC(C)(C)COc1ccc(C23CCCCC2=CN(CCC(=O)O)C(=O)N3)cc1Cl` (racemic) [Example 60], the EC50 on mouse RORγ came out at 0.072 µM; on human RORγ, 0.118 µM.

Take `CC(C)(C)CCOc1ccc(C23CCCCC2=CN(CCC(=O)O)C(=O)N3)cc1Cl` (racemic) [Example 61]: the figures for the EC50 on mouse RORγ and on human RORγ were 0.068 µM and 0.106 µM, respectively.

Take `O=C(O)CCN1C=C2CCCCC2(c2ccc(OCCC3CCC3)c(Cl)c2)NC1=O` (racemic) [Example 62]: the EC50 is 0.099 µM on mouse RORγ and 0.151 µM at human RORγ.

On to `CC(C)(C)CCc1ccc(C23CCC(F)(F)CC2=CN(CCC(=O)O)C(=O)N3)cc1Cl` (racemic) [Example 63], for which the concentration for a half-maximal effect (EC50) at mouse RORγ and on human RORγ was 0.022 µM each time.

As to `CC(C)(C)CCc1ccc(C23CC(C)(C)CCC2=CN(CCC(=O)O)C(=O)N3)cc1Cl` (racemic) [Example 64], the values for the EC50 at mouse RORγ and at human RORγ were 0.052 µM and 0.034 µM, respectively.

Regarding `O=C(O)CCN1C=C2CCCCC2(c2ccc(OCC3(C(F)(F)F)CC3)c(Cl)c2)NC1=O` (racemic) [Example 65], the EC50 at mouse RORγ worked out at 0.16 µM; at human RORγ it was 1.16 µM.

With `CC1CCCC2(c3ccc(CCC(C)(C)C)c(Cl)c3)NC(=O)N(C34CC(C(=O)O)(C3)C4)C=C12` (racemic) [Example 73], the EC50 at mouse RORγ is 0.027 µM; on human RORγ it was 0.014 µM.

The term EC50 denotes the concentration at which the effect is half-maximal. Higher therefore signals a less potent agent.
